Data reported in EP2140864A2 (H. Lundbeck A/S, priority 2001, dated 2002).
Where two headings read alike, the source gives them in different places.

Columns and labels:
[1] = target: T1, human GAL3 receptor (Homo sapiens, UniProt O60755); assay: Radioligand binding at cloned human GAL3 receptor
T1 construct: expressed in transfected cells
T1 sequence (O60755 1-368): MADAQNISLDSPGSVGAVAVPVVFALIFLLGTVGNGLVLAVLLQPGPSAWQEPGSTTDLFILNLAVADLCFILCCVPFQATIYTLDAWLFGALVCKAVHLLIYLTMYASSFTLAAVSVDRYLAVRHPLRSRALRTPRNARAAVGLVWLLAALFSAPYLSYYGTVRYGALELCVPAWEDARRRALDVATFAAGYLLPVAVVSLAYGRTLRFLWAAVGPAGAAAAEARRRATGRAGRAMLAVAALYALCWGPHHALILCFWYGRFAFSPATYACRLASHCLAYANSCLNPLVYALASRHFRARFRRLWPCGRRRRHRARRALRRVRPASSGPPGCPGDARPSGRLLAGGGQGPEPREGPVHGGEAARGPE
In short: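 Membranes from LM(tk-) cells stably expressing human GAL3, prepared in binding buffer (HEPES-based, pH 7.4), used for radioligand binding. Solvent at final assay concentration: 3% DMSO for indolones, 1% ethanol/0.09% pluronic F-127 for pyrimidines. Binding data analysed by nonlinear regression.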

[2] = target: T2, human α1B adrenoceptor (Homo sapiens, UniProt P35368); assay: Radioligand binding, α1B adrenergic receptor
T2 construct: expressed in transfected cells
T2 sequence (P35368 1-520): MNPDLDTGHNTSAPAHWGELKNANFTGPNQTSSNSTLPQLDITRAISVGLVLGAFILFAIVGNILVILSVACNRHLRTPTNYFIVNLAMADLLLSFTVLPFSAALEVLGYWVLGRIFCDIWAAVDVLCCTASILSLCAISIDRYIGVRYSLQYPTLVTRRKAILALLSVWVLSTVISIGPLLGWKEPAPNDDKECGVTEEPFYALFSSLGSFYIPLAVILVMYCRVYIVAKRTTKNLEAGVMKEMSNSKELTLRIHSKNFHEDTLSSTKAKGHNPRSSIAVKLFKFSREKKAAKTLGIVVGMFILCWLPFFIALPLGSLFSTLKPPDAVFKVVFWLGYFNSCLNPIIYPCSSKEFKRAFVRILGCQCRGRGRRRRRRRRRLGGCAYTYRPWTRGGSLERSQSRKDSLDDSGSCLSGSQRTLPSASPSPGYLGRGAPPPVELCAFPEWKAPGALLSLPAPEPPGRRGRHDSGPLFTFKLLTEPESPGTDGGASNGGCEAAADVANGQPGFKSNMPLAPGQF

[3] = target: T3, human dopamine D1 (Homo sapiens, UniProt P21728); assay: Radioligand binding, dopamine D1 receptor
T3 construct: purchased BioSignal, Inc. (Montreal, Canada); host or cells: membranes of cells expressing the receptor
T3 sequence (P21728 whole entry): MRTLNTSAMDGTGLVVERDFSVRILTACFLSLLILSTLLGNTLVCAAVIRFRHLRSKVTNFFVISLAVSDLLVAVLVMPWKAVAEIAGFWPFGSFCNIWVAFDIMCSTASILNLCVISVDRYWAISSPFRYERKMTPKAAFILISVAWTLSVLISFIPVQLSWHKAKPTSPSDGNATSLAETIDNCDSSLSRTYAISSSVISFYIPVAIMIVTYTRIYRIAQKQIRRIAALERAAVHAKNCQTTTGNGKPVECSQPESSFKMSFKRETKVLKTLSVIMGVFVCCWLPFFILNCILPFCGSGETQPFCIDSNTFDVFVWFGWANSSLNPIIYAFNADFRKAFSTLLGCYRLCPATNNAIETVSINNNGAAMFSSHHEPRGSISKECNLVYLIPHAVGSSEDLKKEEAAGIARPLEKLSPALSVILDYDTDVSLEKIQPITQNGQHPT
Description: Other receptors: Cell membranes expressing human dopamine D1, D2, D4 and rat D3 receptors were purchased through BioSignal, Inc. (Montreal, Canada). Binding assays using the histamine H1 receptor; dopamine receptors; and α1A, α1E, and α2 adrenergic receptors may be carried out according to the procedures described in U.S. Patent No. 5,780,485, the disclosure of which is hereby incorporated by reference in its entirety into this application. Binding assays using the dopamine D5 receptor may be carried out according to the procedures described in U.S. Patent No. 5,882,855, the disclosure of which is hereby incorporated by reference in its entirety into this application. Binding assays for the human α1D adrenergic receptor may be carried out according to the procedures described in U.S. Patent No. 6,156,518, the disclosure of which is hereby incorporated by reference in its entirety into this application.
Binding data were analyzed using nonlinear regression and statistical techniques available in the GraphPAD Prism package (San Diego, CA). Enzymatic assay data were derived from a standard curve of reference compound data.

[4] = pyrimidines, cloned human receptor, read-out: Ki GalR3
[5] = Table 10; Ki hα1B divided by Ki hGAL3
[6] = Table 10; Ki hD1 divided by Ki hGAL3
[7] = indolones, cloned human receptor, read-out: Ki GalR3

Row | SMILES | Ki ([1]; Table 7, read-out: hGAL3 Ki) [nM] | Ki ([1]; Table 9, read-out: hGAL3 Ki) [nM] | Ki [1, 4] [nM] | Ki ([2]; Table 9; read-out: hα1B Ki) [nM] | selectivity ratio hα1B [2, 5] | Ki ([3]; Table 9; read-out: hD1 Ki) [nM] | selectivity ratio hD1 [3, 6] | GAL1/GAL3 Ki ratio ([1]; Ki at GAL1 divided by Ki at human GAL3) | Ki ([1]; read-out: Ki GalR3, pyrimidines, cloned human receptor) [nM] | Ki ([1]; read-out: hGAL3 Ki, Table 7) [nM] | Ki ([1]; read-out: hGAL3 Ki, Table 9) [nM] | Ki ([2]; read-out: hα1B Ki; Table 9) [nM] | Ki ([3]; read-out: hD1 Ki; Table 9) [nM] | Ki [1, 7] [nM]
1 | Cc1ccc(Nc2cc(N3CCCCC3)nc(N(C)CCc3c[nH]c4ccccc34)n2)cc1 [Example 11] | 91 | 91 | 91 | 1440 | 16 | 79 | 0.9 | – | – | – | – | – | – | –
2 | CN(CCc1c[nH]c2ccccc12)c1nc(Nc2ccc(F)c(F)c2)cc(N2CCCCC2)n1 [Example 15] | 73 | 73 | 73 | 853 | 12 | 344 | 5 | – | – | – | – | – | – | –
3 | COc1cccc(Nc2cc(N3CCCCC3)nc(N(C)CCc3c[nH]c4ccccc34)n2)c1 [Example 17] | 87 | 87 | 87 | 1170 | 13 | 516 | 6 | – | – | – | – | – | – | –
4 | Cc1ccc(Nc2cc(N3CCCCC3)nc(N(C)CCc3ccccc3)n2)cc1 [Example 22] | 28 | 28 | 28 | 1580 | >30 | 128 | 5 | – | – | – | – | – | – | –
5 | Cc1ccc(Nc2cc(N3CCCCC3)nc(N3CCN(c4ncccc4C(F)(F)F)CC3)n2)cc1 [Example 34] | 23 | 23 | 23 | 15000 | >100 | 290 | 13 | 39 | – | – | – | – | – | –
6 | COC[C@@H]1[C@@H](c2ccccc2)OCCN1c1nc(Nc2ccc(C)cc2)cc(N2CCCCC2)n1 [Example 49] | – | – | – | – | >30 | – | 18 | – | 211 | 211 | 211 | 18900 | 3780 | –
7 | CN(C)c1cc(Nc2ccc(Cl)c(Cl)c2)nc(Nc2ccccc2)n1 [Example 60] | 86 | 86 | 86 | 40600 | >100 | 600 | 7 | – | – | – | – | – | – | –
8 | Cc1ccc(Nc2cc(N(C)C)nc(N(C)CCc3c[nH]c4ccccc34)n2)cc1 [Example 77] | 79 | 79 | 79 | 452 | 6 | 60 | 0.8 | – | – | – | – | – | – | –
9 | O=C1C(=Nc2cccc(C(F)(F)F)c2)c2ccccc2N1c1ccccc1 [Example 92, 1-PHENYL-3- [[3-(TRIFLUOROMETHYL)PHENYL]IMINO]-1,3-DIHYDRO-2H-INDOL-2-ONE] | – | – | – | – | >100 | – | >100 | – | – | – | – | – | – | –
10 | O=C1C(=Nc2cccc(Cl)c2)c2ccccc2N1c1ccccc1 [Example 94, 3-[(3-CHLOROPHENYL)IMINO]-1-PHENYL-1,3-DIHYDRO-2H-INDOL-2-ONE] | 49 | 49 | – | 31100 | >100 | 2150 | >30 | – | – | – | – | – | – | 49
11 | O=C1C(=Nc2ccc(C(F)(F)F)cc2)c2ccccc2N1c1ccccc1 [Example 95, 1-PHENYL-3-[[4-(TRIFLUOROMETHYL)PHENYL]IMINO]-1,3-DIHYDRO-2H-INDOL-2-ONE] | 29 | 29 | – | 32500 | >100 | 4390 | >100 | – | – | – | – | – | – | 29
12 | O=C1C(=Nc2ccc(Cl)cc2)c2ccccc2N1c1ccccc1 [Example 97, 3-[(4-CHLOROPHENYL)IMINO]-1-PHENYL-1,3-DIHYDRO-2H-INDOL-2-ONE] | 51 | 51 | – | 45800 | >100 | 25100 | >100 | – | – | – | – | – | – | 51
13 | O=C1C(=Nc2ccc(Br)cc2)c2ccccc2N1c1ccccc1 [Example 98, 3-[(4-BROMOPHENYL)IMINO]-1-PHENYL-1,3-DIHYDRO-2H-INDOL-2-ONE] | 38 | 38 | – | 31700 | >100 | 2520 | >30 | – | – | – | – | – | – | 38
14 | O=C1C(=Nc2cc(Cl)cc(Cl)c2)c2ccccc2N1c1ccccc1 [Example 103, 3-[(3,5-DICHLOROPHENYL)IMINO]-1-PHENYL-1,3-DIHYDRO-2H-INDOL-2-ONE] | – | – | – | – | – | – | – | – | – | – | – | – | – | 68
